Assay results reported in patent US20260376293A1, “METHODS FOR STUDYING GPR158 PHARMACOLOGY AND IDENTIFICATION OF ITS LIGANDS” (UNIVERSITY OF FLORIDA RESEARCH FOUNDATION, INCORPORATED, priority 2022, published 2026).
Read-outs that look alike come from different tables or passages of the source.

Biological target: T1, GPR158 (Homo sapiens, UniProt Q5T848)
T1 construct: GPR158 AC2 (1-775) was expressed and purified; Flag; made in house; host or cells: HEK293 GnTI- (BacMam virus)
T1 sequence (Q5T848 24-775): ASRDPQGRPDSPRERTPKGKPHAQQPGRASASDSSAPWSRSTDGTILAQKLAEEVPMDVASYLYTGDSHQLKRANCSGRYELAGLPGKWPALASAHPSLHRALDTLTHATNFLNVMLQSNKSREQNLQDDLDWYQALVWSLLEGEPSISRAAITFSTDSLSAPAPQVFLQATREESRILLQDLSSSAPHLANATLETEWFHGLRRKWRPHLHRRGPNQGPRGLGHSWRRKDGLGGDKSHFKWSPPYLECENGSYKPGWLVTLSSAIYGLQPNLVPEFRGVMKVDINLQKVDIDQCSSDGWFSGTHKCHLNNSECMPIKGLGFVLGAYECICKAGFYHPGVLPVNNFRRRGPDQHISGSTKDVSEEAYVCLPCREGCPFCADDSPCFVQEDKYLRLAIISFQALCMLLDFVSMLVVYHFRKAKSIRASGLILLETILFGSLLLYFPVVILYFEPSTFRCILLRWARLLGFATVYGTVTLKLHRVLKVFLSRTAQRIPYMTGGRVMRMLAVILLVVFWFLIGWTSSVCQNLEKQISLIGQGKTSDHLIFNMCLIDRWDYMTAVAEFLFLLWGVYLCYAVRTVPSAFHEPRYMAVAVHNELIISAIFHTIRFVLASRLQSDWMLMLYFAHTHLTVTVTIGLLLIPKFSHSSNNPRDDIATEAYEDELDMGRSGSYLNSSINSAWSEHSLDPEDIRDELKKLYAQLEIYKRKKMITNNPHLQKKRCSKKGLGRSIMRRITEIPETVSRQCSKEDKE
Test: Isothermal Titration calorimetry (ITC) with purified GPR158
Assay type: binding
Details: purified GPR158-AC2, 23 °C
Description: FIGS. 9A-9H. Direct interaction of glycine with GPR158 A) Schematics of assay design for detecting glycine binding to GPR158 by flow cytometry. Cells transfected with GPR158 are incubated with FITC-glycine and fluorescence labeling of cells is detected by flow cytometry. B) Representative flow cytometry histogram showing distribution of cellular populations after sorting. C) Quantification of FITC-glycine binding detected in flow cytometry binding experiments. The median of fluorescence (MFI) is quantified and plotted. Error bars are s.e.m. values, N=3, **p<0.01, ****p<0.0001, two-way ANOVA. D) Schematics of the radioligand binding assay. E) Quantification of ^3H-glycine binding to membrane expressing GPR158. Count Per minute (CPM) are measured and plotted. Data shown mean of 4 independent experiments error bars are s.e.m. values, n=4. […] Data shown mean of 4 independent experiments error bars are s.e.m. values, n=4. G) Schematics of the assay design detecting glycine binding to GPR158 by Isothermal Titration calorimetry (ITC) with purified protein. H) Representative ITC binding profile showing glycine binding to GPR158. Control (thick line), GPR158 (thin line) I) Quantification of binding determined by fitting the integrated isotherm to an independent binding model.
FIGS. 10A-10D. Binding of Glycine to GPR158 in ITC experiments. […]

**Q.** With `NCC(=O)O` [glycine] as the compound, how does the Kd (mean of 4 experimental runs, independent binding model, read-out: KD (ITC, mean)) read?
**A.** Its Kd is 7.76 ± 3.66 µM.

**Q.** And the Kd (range across experiments, read-out: binding constants (KD) across experiments)?
**A.** The Kd was 2 to 16 µM.
